From patent publication US20050209278A1, “Piperidinyl- and piperazinyl-sulfonylmethyl hydroxamic acids and their use as protease inhibitors” (priority 2002, published 2005)
Where two headings read alike, the source gives them in different places.

Key:
[1] = target: T1, MMP-1 (Homo sapiens, UniProt P03956); test: In vitro MMP inhibition, Ki determination (fluorogenic substrate II); format: biochemical; conditions: read-out: MMP-1 Ki
T1 construct: made in house; host or cells: MMP-1-transfected HT-1080 cells (spent media)
T1 sequence (P03956 100-469): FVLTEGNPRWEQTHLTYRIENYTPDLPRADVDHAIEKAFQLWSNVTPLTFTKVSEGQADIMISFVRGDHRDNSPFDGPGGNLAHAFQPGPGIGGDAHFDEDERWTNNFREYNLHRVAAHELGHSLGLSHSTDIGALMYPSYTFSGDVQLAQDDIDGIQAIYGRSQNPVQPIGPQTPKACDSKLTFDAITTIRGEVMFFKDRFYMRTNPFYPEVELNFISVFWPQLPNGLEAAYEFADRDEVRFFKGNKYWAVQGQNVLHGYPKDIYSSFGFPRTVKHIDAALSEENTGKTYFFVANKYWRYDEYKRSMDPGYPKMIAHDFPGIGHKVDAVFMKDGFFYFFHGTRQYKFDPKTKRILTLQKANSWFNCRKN

[2] = target: T2, MMP-2 (Homo sapiens, UniProt P08253); test: as above; format: biochemical; conditions: read-out: MMP-2 Ki
T2 construct: made in house; host or cells: MMP-2-transfected p2AHT2 cells
T2 sequence (P08253 110-660): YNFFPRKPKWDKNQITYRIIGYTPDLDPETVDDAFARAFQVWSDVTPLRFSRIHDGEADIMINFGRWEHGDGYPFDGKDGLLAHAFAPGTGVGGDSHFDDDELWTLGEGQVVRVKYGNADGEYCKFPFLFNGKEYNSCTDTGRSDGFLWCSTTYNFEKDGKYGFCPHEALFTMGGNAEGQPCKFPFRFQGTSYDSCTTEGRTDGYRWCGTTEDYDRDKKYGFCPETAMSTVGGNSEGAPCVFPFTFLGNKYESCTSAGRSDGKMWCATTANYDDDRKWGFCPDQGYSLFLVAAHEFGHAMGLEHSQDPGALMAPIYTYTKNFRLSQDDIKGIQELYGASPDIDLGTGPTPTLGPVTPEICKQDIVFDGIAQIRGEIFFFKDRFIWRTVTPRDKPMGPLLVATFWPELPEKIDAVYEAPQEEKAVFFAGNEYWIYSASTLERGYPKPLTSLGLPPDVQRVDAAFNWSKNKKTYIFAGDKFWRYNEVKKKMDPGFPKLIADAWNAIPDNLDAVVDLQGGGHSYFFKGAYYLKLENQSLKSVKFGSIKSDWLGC

| Ki ([1]; value outside parentheses) [nM] | Ki ([2]; value outside parentheses) [nM] | Ki ([1]; value not in parenthesis) [nM] | Ki ([2]; value not in parenthesis) [nM] | Structure (SMILES) |
| --- | --- | --- | --- | --- |
| > 10000 | 1.38 | – | – | CCCCOc1ccc(N2CCN(S(=O)(=O)C3(C(=O)NO)CCN(Cc4ccco4)CC3)CC2)cc1 [Example 252] |
| > 10000 | 1.36 | – | – | COCCOc1ccc(N2CCN(S(=O)(=O)C3(C(=O)NO)CCN(C4CC4)CC3)CC2)cc1F [Example 297] |
| – | – | 4770 | 0.64 | CCCCOc1ccc(N2CCN(S(=O)(=O)C3(C(=O)NO)Cc4ccccc4C3)CC2)nc1 [Example 85] |
| 602 | 0.444 | – | – | O=C(NO)C1(S(=O)(=O)N2CCC(c3ccc(Br)cn3)CC2)CCOCC1 [Example 306] |
| > 10000 | 1.74 | – | – | CCCCOc1ccc(N2CCN(S(=O)(=O)C3(C(=O)NO)CCN(C(=O)CN)CC3)CC2)cc1 [Example 292] |
| – | – | 767 | 0.66 | O=C(NO)C1(S(=O)(=O)N2CCN(c3ccc(C(F)(F)F)cn3)CC2)CCOCC1 [Example 94] |
| – | – | > 10000 | 0.407 | O=C(NO)C1(S(=O)(=O)N2CCN(c3ccc(OCCCC(F)(F)F)cc3F)CC2)CCOCC1 [Example 81] |
| > 10000 | 0.858 | – | – | CCCCOc1ccc(N2CCN(S(=O)(=O)C3(C(=O)NO)CCN(C(=O)c4ccccc4)CC3)CC2)cc1 [Example 255] |
| > 10000 | 0.622 | – | – | CCCCOc1ccc(N2CCN(S(=O)(=O)C3(C(=O)NO)CCN(C(=O)C(C)C)CC3)CC2)cc1 [Example 273] |

Second part, the molecule before the results:

| Structure (SMILES) | Ki ([1]; value outside parentheses) [nM] | Ki ([2]; value outside parentheses) [nM] | Ki ([1]; value not in parenthesis) [nM] | Ki ([2]; value not in parenthesis) [nM] |
| --- | --- | --- | --- | --- |
| CCCCOc1ccc(N2CCN(S(=O)(=O)C3(C(=O)NO)CCN(c4ccc(O)nn4)CC3)CC2)cc1 [Example 283] | 9790 | 0.37 | – | – |
| CCCCOc1ccc(N2CCN(S(=O)(=O)C3(C(=O)NO)CCN(C(=O)C(C)(C)C)CC3)CC2)cc1 [Example 267] | > 10000 | 0.836 | – | – |
| CCCCOc1ccc(N2CCN(S(=O)(=O)C3(C(=O)NO)CCN(c4ccc(Cl)c(Cl)c4)CC3)CC2)cc1 [Example 250] | – | – | > 10000 | 29.9 |
| CCCCOc1ccc(N2CCN(S(=O)(=O)C3(C(=O)NO)CCN(CCOC)CC3)CC2)c(F)c1 [Example 284] | > 10000 | 0.81 | – | – |
| CCCCOc1ccc(N2CCN(S(=O)(=O)C3(C(=O)NO)CCN(C=O)CC3)CC2)cc1 [Example 269] | 6400 | 0.436 | – | – |
| CCCCOc1ccc(N2CCN(S(=O)(=O)C3(C(=O)NO)CCN(C(=O)CC(F)(F)F)CC3)CC2)cc1 [Example 265] | > 10000 | 0.878 | – | – |
| CCCCc1ccc(C2CCN(S(=O)(=O)C3(C(=O)NO)CCOCC3)CC2)nc1 [Example 307] | 6810 | 0.505 | – | – |
| CCN1CCC(C(=O)NO)(S(=O)(=O)N2CCN(c3ccc(OCCCC(F)(F)F)cc3)CC2)CC1 [Example 78] | – | – | > 10000 | 2.56 |
| CCCCOc1ccc(N2CCN(S(=O)(=O)C3(C(=O)NO)CCOCC3)CC2)nc1 [Example 100] | – | – | 1600 | 0.13 |
| CCCCOc1ccc(N2CCN(S(=O)(=O)C3(C(=O)NO)CCN(C(C)(C)C)CC3)CC2)c(F)c1 [Example 84] | – | – | > 10000 | 7.53 |
| O=C(NO)C1(S(=O)(=O)N2CCN(c3ccc(OCCCCF)cc3)CC2)CCOCC1 [Example 89] | – | – | > 10000 | 0.49 |
| CCCCOc1ccc(N2CCN(S(=O)(=O)C3(C(=O)NO)CCN(C4CC4)CC3)CC2)cc1 [Example 301] | > 10000 | 0.88 | – | – |
| O=C(NO)C1(S(=O)(=O)N2CCN(c3ccc(COCC(F)(F)C(F)F)cc3)CC2)CCOCC1 [Example 71] | – | – | > 10000 | 2.35 |
| CCCCCc1ccc(C2CCN(S(=O)(=O)C3(C(=O)NO)CCOCC3)CC2)nc1 [Example 305] | 6700 | 0.407 | – | – |
| CCCCOc1ccc(N2CCN(S(=O)(=O)C3(C(=O)NO)CCN(Cc4cccnc4)CC3)CC2)cc1F [Example 293] | > 10000 | 0.486 | – | – |
| CCCCOc1ccc(N2CCN(S(=O)(=O)C3(C(=O)NO)CCN(c4ccc(C)cc4)CC3)CC2)cc1F [Example 296] | > 10000 | 6.73 | – | – |
| CCCCOc1ccc(N2CCN(S(=O)(=O)C3(C(=O)NO)CCOCC3)CC2)c(F)c1 [Example 90] | – | – | > 10000 | 1.68 |
